Our source for the IC50 and inhibition values is patent US8962609B2, “Pyrimidine compounds as inhibitors of protein kinases IKK epsilon and/or TBK-1, processes for their preparation, and pharmaceutical compositions containing them” (Domainex Limited, priority 2010, dated 2015).

One test deals with IKKε (Homo sapiens (Human), UniProt Q14164). Kind of test: IKKε time-resolved fluorescence Lanthascreen kinase inhibition assay. Type of test: biochemical. The procedure: (§1) Compounds of the invention (synthesised as described below) were tested for activity against the IKKε and TBK-1 enzyme as follows:
(§2) Inhibitions studies were performed using a time-resolved fluorescence-based Lanthascreen™ assay. Phosphorylation of a fluorescein-labelled substrate peptide is measured using terbium-labeled phosphospecific antibodies. Terbium is excited at 340 nm and the FRET energy transfer to fluorescein is measured at 495 and 520 nm. The emission ratio between 520 and 495 is a measure of the level of phosphorylation of the substrate by the kinase.
(§3) Kinase inhibition assays (10 μL) were performed at 20° C. in 384-well plate format. Compound IC50 values were determined at the apparent Km for ATP (20 μM) based on a radiometric assay (Invitrogen) using 8 or 10 point curves in duplicate. The final reaction conditions contained 400 nM fluorescein-IkBα substrate ([…]), 20 μM ATP, 2 nM or 8 nM IKKε or TBK1 kinase respectively, and 3% DMSO in kinase assay buffer consisting of 50 mM HEPES (pH 7.5), 10 mM MgCl, 1 mM EGTA, 0.01% Brij-35.
(§4) Compound dilutions were prepared from 10 mM DMSO stocks by dilution into DMSO.
(§5) The kinase phosphorylation assay was initiated by the addition of the kinase and the reaction was allowed to proceed for 1 hr or 2.5 hr for IKKε and TBK-1 kinase respectively. […] The reaction was stopped by the addition of 10 mM EDTA, and phosphorylation was detected after a 1 hr incubation with 1.5 nM terbium-labelled antibody against phosphorylation at Serine 32 on the IkBα[…]peptide, both in TR-FRET dilution buffer (Invitrogen).
(§6) In the data presented for IKKε, <9 μM means having an activity in the range from 300 nM≦9 μM; and <300 nM means having an activity in the range 30 nM≦300 nM; and for the data presented for TBK-1, <3 μM means having an activity in the range 300 nM≦3 μM, and <300 nM means having an activity in the range 30 nM≦300 nM.
A general note: TR-FRET usually uses a lanthanide donor and a delayed reading to cut background.

The next test concerns the target TBK-1 (Homo sapiens (Human), UniProt Q9UHD2). Kind of test: biochemical. The procedure: as §1, §2, §3, §4, §5, §6
The target in the next test is IKKβ (Homo sapiens (Human), UniProt O14920). Kind of test: IKKβ radiolabelled P33 ATP assay (Kinase Hotspot Technology). It counts as biochemical. The conditions noted are these: for inhibition at 1 µM: read-out: IKK-β percentage inhibition (in brackets); for IC50: single point, read-out: Concentration of compounds required for ~ 50% inhibition, IKK-β. The procedure: (§7) The compounds of examples DMX-1,8,9,14 and 16 were tested for activity against TBK1, IKKβ, Jnk1 and Jnk3 in addition to IKK-ε and TBK-1. TBK-1, IKKβ, Jnk1 and Jnk3 were screened using radiolabelled P^33 ATP using the Kinase Hotspot Technology of Reaction Biology Corp. Screening against Jnk-1 and Jnk-3 was carried out at the Km for ATP. IKK-ε and TBK-1 screening was also carried out as described above at the Km for ATP for these enzymes. […] TBK-1, IKKβ and Jnk1 were screened using radiolabelled P^33 ATP using the Kinase Hotspot Technology of Reaction Biology Corp. IKK-ε and TBK-1 screening was also carried out as described above at the Km for ATP for these enzymes.

In another test the target is Jnk1 (Homo sapiens (Human), UniProt P45983). Kind of test: Jnk1 radiolabelled P33 ATP assay (Kinase Hotspot Technology). The conditions noted are these: for IC50: read-out: Concentration of compounds required for ~ 50% inhibition, Jnk-1; for inhibition at 1 µM: single point at the concentration (1000 nM), read-out: Jnk-1 percentage inhibition (in brackets). Type of test: biochemical. The procedure: as §7

For a further test, the target named is Jnk3 (Homo sapiens (Human), UniProt P53779). Kind of test: Jnk3 radiolabelled P33 ATP assay (Kinase Hotspot Technology). Type of test: biochemical. Conditions: for IC50: at the Km for ATP, read-out: Concentration of compounds required for ~ 50% inhibition, Jnk-3. The procedure:
as §7

Where [1] appears, read: 20 μM ATP (apparent Km), 2 nM kinase, 1 hr, values are activity bands, read-out: Inhibition of IKKε IC50.
[2] abbreviates: at the Km for ATP, read-out: Concentration of compounds required for ~ 50% inhibition, IKK-ε.
Where [3] appears, read: 20 μM ATP (apparent Km), 8 nM kinase, 2.5 hr, values are activity bands, read-out: Inhibition of TBK-1 IC50.
Setting [4] is: at the Km for ATP, read-out: Concentration of compounds required for ~ 50% inhibition, TBK-1.
The mark [5] stands for this setting: single point at the concentration (1000 nM), 1 μM ATP.
The mark [6] stands for this setting: single point at the concentration (1000 nM), 10 μM ATP.

For orientation: inhibition means the share of the control response that was lost under treatment.

The structures appear in SMILES notation. Read-outs that look alike come from different tables or passages of the source.

Jnk1, sequence (P45983 whole entry): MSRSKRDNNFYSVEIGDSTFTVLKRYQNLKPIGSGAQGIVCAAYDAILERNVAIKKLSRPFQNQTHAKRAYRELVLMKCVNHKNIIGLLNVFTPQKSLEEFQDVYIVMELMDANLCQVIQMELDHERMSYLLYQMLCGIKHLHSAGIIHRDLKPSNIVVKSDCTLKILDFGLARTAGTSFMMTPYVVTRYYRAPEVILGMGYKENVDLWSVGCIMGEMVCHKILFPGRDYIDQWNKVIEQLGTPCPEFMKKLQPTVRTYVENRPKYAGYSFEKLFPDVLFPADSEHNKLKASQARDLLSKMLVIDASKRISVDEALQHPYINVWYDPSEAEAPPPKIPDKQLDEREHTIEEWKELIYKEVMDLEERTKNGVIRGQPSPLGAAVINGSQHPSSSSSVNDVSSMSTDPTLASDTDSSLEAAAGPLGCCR
TBK-1, sequence (Q9UHD2 whole entry): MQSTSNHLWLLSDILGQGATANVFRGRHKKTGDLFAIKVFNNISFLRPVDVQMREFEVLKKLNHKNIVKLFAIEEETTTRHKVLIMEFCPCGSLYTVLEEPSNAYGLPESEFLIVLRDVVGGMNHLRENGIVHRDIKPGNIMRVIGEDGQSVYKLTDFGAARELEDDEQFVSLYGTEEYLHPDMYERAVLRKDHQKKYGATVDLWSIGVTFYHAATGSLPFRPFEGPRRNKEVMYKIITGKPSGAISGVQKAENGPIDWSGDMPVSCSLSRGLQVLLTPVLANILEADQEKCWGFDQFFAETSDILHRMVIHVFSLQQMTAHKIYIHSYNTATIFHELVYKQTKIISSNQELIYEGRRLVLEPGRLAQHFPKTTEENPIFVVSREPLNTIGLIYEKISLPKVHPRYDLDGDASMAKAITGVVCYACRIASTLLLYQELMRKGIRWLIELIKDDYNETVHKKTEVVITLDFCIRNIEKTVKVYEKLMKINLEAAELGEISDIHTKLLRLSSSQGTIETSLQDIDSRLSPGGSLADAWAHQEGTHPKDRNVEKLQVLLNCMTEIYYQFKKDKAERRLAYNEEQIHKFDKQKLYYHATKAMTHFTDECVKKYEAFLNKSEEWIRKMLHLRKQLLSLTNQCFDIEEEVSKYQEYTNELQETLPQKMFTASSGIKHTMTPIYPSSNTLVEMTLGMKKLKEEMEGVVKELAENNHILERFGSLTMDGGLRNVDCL
Jnk3, sequence (P53779 whole entry): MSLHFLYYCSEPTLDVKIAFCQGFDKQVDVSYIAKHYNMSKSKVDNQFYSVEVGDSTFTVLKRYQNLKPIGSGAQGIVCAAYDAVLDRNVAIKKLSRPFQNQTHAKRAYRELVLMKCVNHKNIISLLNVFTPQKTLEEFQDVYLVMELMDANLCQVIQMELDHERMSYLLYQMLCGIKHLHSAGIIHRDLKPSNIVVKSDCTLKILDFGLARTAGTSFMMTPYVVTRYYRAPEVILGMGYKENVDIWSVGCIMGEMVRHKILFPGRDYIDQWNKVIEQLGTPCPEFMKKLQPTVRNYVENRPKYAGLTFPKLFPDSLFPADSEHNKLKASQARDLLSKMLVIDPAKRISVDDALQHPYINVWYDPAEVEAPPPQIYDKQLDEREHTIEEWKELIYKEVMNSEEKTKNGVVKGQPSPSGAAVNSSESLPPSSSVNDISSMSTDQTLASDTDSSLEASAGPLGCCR
IKKε, sequence (Q14164 whole entry): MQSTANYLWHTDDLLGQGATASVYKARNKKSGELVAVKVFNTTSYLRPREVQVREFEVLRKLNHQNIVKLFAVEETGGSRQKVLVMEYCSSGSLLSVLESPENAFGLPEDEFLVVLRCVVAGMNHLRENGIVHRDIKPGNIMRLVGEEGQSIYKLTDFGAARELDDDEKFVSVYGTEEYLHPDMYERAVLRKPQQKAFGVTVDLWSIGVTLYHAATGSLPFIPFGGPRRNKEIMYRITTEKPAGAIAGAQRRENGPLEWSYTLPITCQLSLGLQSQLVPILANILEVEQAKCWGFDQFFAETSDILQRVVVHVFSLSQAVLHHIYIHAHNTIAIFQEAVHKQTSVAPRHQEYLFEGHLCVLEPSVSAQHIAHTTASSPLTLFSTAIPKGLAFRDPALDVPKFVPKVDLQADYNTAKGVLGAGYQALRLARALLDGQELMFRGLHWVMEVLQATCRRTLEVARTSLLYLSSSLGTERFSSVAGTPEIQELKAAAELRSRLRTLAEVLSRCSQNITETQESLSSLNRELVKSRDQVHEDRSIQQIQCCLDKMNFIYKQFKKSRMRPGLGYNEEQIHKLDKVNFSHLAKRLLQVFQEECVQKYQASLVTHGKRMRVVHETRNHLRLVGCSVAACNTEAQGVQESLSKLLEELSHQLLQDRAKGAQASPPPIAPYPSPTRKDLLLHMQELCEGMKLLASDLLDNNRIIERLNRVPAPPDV
IKKβ, sequence (O14920 whole entry): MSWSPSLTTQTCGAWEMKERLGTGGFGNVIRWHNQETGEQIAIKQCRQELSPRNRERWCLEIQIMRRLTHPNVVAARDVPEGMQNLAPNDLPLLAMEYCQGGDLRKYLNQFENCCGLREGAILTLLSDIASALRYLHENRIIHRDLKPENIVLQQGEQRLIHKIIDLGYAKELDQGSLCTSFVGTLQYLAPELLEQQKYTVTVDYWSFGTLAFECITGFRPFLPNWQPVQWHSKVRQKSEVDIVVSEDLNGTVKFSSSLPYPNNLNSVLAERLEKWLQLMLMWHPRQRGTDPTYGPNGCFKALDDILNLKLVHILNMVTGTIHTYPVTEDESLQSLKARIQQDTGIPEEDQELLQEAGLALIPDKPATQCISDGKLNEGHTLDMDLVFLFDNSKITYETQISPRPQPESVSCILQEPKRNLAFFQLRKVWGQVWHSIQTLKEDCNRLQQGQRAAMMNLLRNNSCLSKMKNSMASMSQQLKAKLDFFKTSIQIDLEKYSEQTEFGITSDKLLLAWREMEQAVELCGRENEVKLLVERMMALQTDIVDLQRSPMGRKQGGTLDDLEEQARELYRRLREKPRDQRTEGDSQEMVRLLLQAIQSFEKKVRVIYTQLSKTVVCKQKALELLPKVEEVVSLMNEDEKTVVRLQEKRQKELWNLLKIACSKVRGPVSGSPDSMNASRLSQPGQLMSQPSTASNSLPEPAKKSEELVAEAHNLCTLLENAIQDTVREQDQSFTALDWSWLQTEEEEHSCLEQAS

As for `CC(=O)Nc1ccc(Nc2nccc(-c3ccc(N4CCCC4)c(C#N)c3)n2)cc1` [DMX-9], the IC50 was less than 0.03 µM at IKKε (setting [1]); 0.003 µM on IKKε (setting [2]); less than 0.03 µM on TBK-1 (setting [3]); 0.003 µM at TBK-1 (setting [4]); 1 µM at IKKβ (1 μM ATP); 0.262 µM on Jnk1 (at the Km for ATP). The IC50 at Jnk3 was 10 µM. In addition, the inhibition at 1 µM on IKKβ (setting [5]) came out at 34%. In addition, on Jnk3 (at the printed concentration (10000 nM), Km for ATP, read-out: Jnk-3 percentage inhibition (in brackets)), the inhibition at 10 µM was 51%.
Turning to `Cn1cc(Nc2nccc(-c3ccc(N4CCCC4)c(C#N)c3)n2)cn1` [DMX-56], the IC50 was less than 0.03 µM at IKKε (setting [1]); 0.008 µM at IKKε (setting [2]); less than 0.03 µM on TBK-1 (setting [3]); 0.003 µM at TBK-1 (setting [4]); 1 µM on IKKβ (10 μM ATP); more than 1 µM on Jnk1 (single point, 10 μM ATP). Also, the inhibition at 1 µM at IKKβ (setting [6]) amounted to 56%; at Jnk1 (10 μM ATP) it was 21%.
For the compound `CC(=O)Nc1ccc(Nc2nccc(-c3ccc(N4CC(O)C4)c(C#N)c3)n2)cn1` [DMX-66], the IC50 is less than 0.03 µM on IKKε (setting [1]); 0.021 µM at IKKε (setting [2]); less than 0.03 µM on TBK-1 (setting [3]); 0.024 µM at TBK-1 (setting [4]); 1 µM on IKKβ (10 μM ATP); 1 µM at Jnk1 (single point, 10 μM ATP). Besides, the inhibition at 1 µM at IKKβ (setting [6]) was 43%; at Jnk1 (10 μM ATP), 52%.
On to `CN(C)CCNc1ccc(Nc2nccc(-c3ccc(N4CC[C@H](F)C4)c(C#N)c3)n2)cn1` [DMX-69], for which the IC50 on IKKε (setting [1]) was less than 0.03 µM; at IKKε (setting [2]) it was 0.004 µM; at TBK-1 (setting [3]), less than 0.03 µM; at TBK-1 (setting [4]) it was 0.004 µM; on IKKβ (10 μM ATP) it was 1 µM; at Jnk1 (single point, 10 μM ATP), 1 µM. The inhibition at 1 µM on IKKβ (setting [6]) came out at 54%; on Jnk1 (10 μM ATP) it was 43%.
Take `N#Cc1cc(-c2ccnc(Nc3cccc(C(N)=O)c3)n2)ccc1N1CCCC1` [DMX-1, 3-[4-(3-cyano-4-pyrrolidin-1-yl-phenyl)-pyrimidin-2-ylamino]-benzamide]: the IC50 at IKKε (setting [1]) was less than 0.03 µM; on IKKε (setting [2]) it was 0.002 µM; on TBK-1 (setting [3]) it was less than 0.03 µM; at TBK-1 (setting [4]), 0.004 µM; at IKKβ (1 μM ATP) it was 1 µM; at Jnk1 (at the Km for ATP) it was 0.254 µM. Also, the IC50 on Jnk3 was more than 10 µM. At IKKβ, the inhibition at 1 µM amounted to 48%.
As for `N#Cc1cc(-c2ccnc(Nc3ccc(C(N)=O)cc3)n2)ccc1N1CCCC1` [DMX-8], the IC50 at IKKε (setting [1]) was less than 0.03 µM; on IKKε (setting [2]), 0.003 µM; on TBK-1 (setting [3]), less than 0.03 µM; at TBK-1 (setting [4]), 0.003 µM; at IKKβ (1 μM ATP), 1 µM; at Jnk1 (at the Km for ATP), 0.354 µM. Moreover, on Jnk3, the IC50 was more than 10 µM. In addition, at IKKβ (setting [5]), the inhibition at 1 µM is 50%.
On to `N#Cc1cc(-c2ccnc(Nc3ccc(N4CCOCC4)nc3)n2)ccc1N1CCCC1` [DMX-16], for which the IC50 on IKKε (setting [1]) was less than 0.03 µM; at IKKε (setting [2]), 0.002 µM; on TBK-1 (setting [3]), less than 0.03 µM; on TBK-1 (setting [4]), 0.001 µM; on IKKβ (1 μM ATP), 1 µM; on Jnk1 (at the Km for ATP), 0.222 µM. The IC50 on Jnk3 is more than 10 µM. Moreover, the inhibition at 1 µM on IKKβ (setting [5]) was found to be 43%.
`CN(C)c1ccc(Nc2nccc(-c3ccc(N4CCCC4)c(C#N)c3)n2)cn1` [DMX-20]: the IC50 on IKKε (setting [1]) and on TBK-1 (setting [3]) was less than 0.03 µM throughout.
On to `CO[C@H]1CCN(c2ccc(-c3ccnc(Nc4ccc(NC(C)=O)nc4)n3)cc2C#N)C1` [DMX-76], for which the IC50 at IKKε (setting [1]) and at TBK-1 (setting [3]) was less than 0.03 µM each time.
Take `CC(=O)Nc1ccc(Nc2nccc(-c3ccc(N4CCCC4)c(C#N)c3)n2)cn1` [DMX-15]: the IC50 at IKKε (setting [1]) and at TBK-1 (setting [3]) was less than 0.03 µM each time.
With `CN1CCN(c2ccc(Nc3nccc(-c4ccc(N5CC[C@H](O)C5)c(C#N)c4)n3)cn2)CC1` [DMX-54], the IC50 at IKKε (setting [1]) and at TBK-1 (setting [3]) was less than 0.03 µM in each case.
`Cn1cc(Nc2nccc(-c3ccc(N4CCC(C(N)=O)CC4)c(C#N)c3)n2)cn1` [DMX-75]: the IC50 at IKKε (setting [1]) was less than 0.03 µM; at TBK-1 (setting [3]), 0.03 to 0.3 µM.
On to `N#Cc1cc(-c2ccnc(Nc3cccc(NC(=O)N4CCCC4)c3)n2)ccc1N1CCCC1` [DMX-22, Pyrrolidine-1-carboxylic acid {3-[4-(3-cyano-4-pyrrolidin-1-yl-phenyl)-pyrimidin-2-ylamino]-phenyl}-amide], for which the IC50 at IKKε (setting [1]) and on TBK-1 (setting [3]) was less than 0.03 µM in each case.
For `CN1CCC(Nc2ccc(Nc3nccc(-c4ccc(N5CC[C@@H](F)C5)c(C#N)c4)n3)cn2)CC1` [DMX-77], the IC50 on IKKε (setting [1]) and on TBK-1 (setting [3]) was less than 0.03 µM in each case.
For `N#Cc1cc(-c2ccnc(Nc3ccc4c(c3)CC(=O)N4)n2)ccc1N1CCCC1` [DMX-14], the IC50 at IKKε (setting [1]) is less than 0.03 µM; on IKKε (setting [2]), 0.003 µM; on TBK-1 (setting [3]), less than 0.03 µM; on TBK-1 (setting [4]) it was 0.002 µM; on IKKβ (1 μM ATP) it was 1 µM; at Jnk1 (at the Km for ATP), 0.201 µM. The IC50 on Jnk3 is more than 10 µM. Also, the inhibition at 1 µM at IKKβ (setting [5]) was 45%.
Regarding `Cc1cc(C(N)=O)ccc1Nc1nccc(-c2ccc(N3CCCC3)c(C#N)c2)n1` [DMX-21], the IC50 on IKKε (setting [1]) and on TBK-1 (setting [3]) was 0.03 to 0.3 µM in each case.
In the case of `Cn1nccc1Nc1nccc(-c2ccc(N3CCC[C@@H]3C(N)=O)c(C#N)c2)n1` [DMX-53], the IC50 on IKKε (setting [1]) is 0.03 to 0.3 µM; at TBK-1 (setting [3]) it was 0.3 to 3 µM.
In the same order, the values of `C[C@H]1CCCN1c1ccc(-c2ccnc(Nc3ccc(NCCN(C)C)nc3)n2)cc1C#N` [DMX-63] are less than 0.03 µM and less than 0.03 µM.
`Cc1cc(Nc2nccc(-c3ccc(N4CCCC4)c(C#N)c3)n2)on1` [DMX-26]: the IC50 on IKKε (setting [1]) and on TBK-1 (setting [3]) was 0.03 to 0.3 µM throughout.
